Results reported in US9409887B2, “Mutant-selective EGFR inhibitors and uses thereof” (Celgene Avilomics Research, Inc., priority 2010, dated 2016).
pEC50, pIC50: −log10 of the molar value.

Assays:
[1] = test system: H1975 (double mutation L858R/T790M) cells; assay: Cell proliferation (CellTiter Glo, 72 hr) in H1975 cells; format: cell-based, human; settings: for GI50: Homo sapiens, NCI-H1975, H1975 cells, 72 hr; for Ratio WT/mutant (H1975): proliferation GI50, WT EGFR (A431) vs H1975
Procedure: (§1) A431 human epidermoid carcinoma, H1975 human NSCLC and HCC827 human NSCLC adenocarcinoma cells were obtained from the American Type Culture Center (Manassas, Va.). A431 cells were grown in DMEM (Invitrogen, Carlsbad, Calif.) supplemented with 10% FBS (HyClone, South Logan, Utah) and 1% Penicillin-Streptomycin (P/S, Lonza, Walkersville, Md.). H1975 and HCC827 cells were grown in complete RPMI 1640 (Invitrogen) supplemented with 10% FBS and 1% P/S. All cells were maintained and propagated as monolayer cultures at 37° C. in a humidified 5% CO2 incubator.
(§2) Cells were plated in Growth Media supplemented with 5% FBS and 1% P/S at a density of 3,000 cells per well in 96 well tissue culture plates (Corning). Cells were allowed to settle down for 4 hr and then treated with 5, 1.25, 0.31, 0.078, 0.020 or 0.005 μM test compound for 72 hr. Cell viability was determined by CellTiter Glo (Promega, Madison, Wis.) and results were converted to cell numbers using a standard curve. Growth inhibition (GI50) values were determined by Graph Pad Prism.

[2] = target: EGFR-WT (Homo sapiens (Human), UniProt P00533); assay: Omnia biochemical assay, EGFR (WT) active enzyme; settings: [EGFR-WT]=5 nM, [ATP]=15 uM, 30 min pre-incubation
Text: (§3) Omnia Assay Protocol for Potency Assessment Against EGFR (WT) and EGFR (T790M/L858R) Active Enzymes
(§4) Below describes the biochemical assay protocol using EGFR-WT and EGFR-T790M/L858R.
(§5) The mechanics of the assay platform are best described by the vendor (Invitrogen, Carlsbad, Calif.) on their website at the following URL: www.invitrogen.com/content.cfm?pageid=11338 or www.invitrogen.com/site/us/en/home/Pro ducts-and-Services/Applications/Drug-Discovery/Target-and-Lead-Identification-and-Validation/KinaseBiology/KB-Misc/Biochemical-Assays/Omnia-Kinase-Assays.html.
(§6) Briefly, 10× stocks of EGFR-WT (PV3872) from Invitrogen and EGFR-T790M/L858R (40350) from BPS Bioscience, San Diego, Calif., 1.13×ATP (AS001A) and appropriate Tyr-Sox conjugated peptide substrates (KCZ1001) were prepared in 1× kinase reaction buffer consisting of 20 mM Tris, pH 7.5, 5 mM MgCl2, 1 mM EGTA, 5 mM β-glycerophosphate, 5% glycerol (10× stock, KB002A) and 0.2 mM DTT (DS001A). 5 μL of each enzyme were pre-incubated in a Corning (#3574) 384-well, white, non-binding surface microtiter plate (Corning, N.Y.) for 30 min. at 25° C. with a 0.5 μL volume of 50% DMSO and serially diluted compounds prepared in 50% DMSO. Kinase reactions were started with the addition of 45 μL of the ATP/Tyr-Sox peptide substrate mix and monitored every 71 seconds for 60 minutes at λex360/λem485 in a Synergy^4 plate reader from BioTek (Winooski, Vt.). At the conclusion of each assay, progress curves from each well were examined for linear reaction kinetics and fit statistics (R^2, 95% confidence interval, absolute sum of squares). Initial velocity (0 minutes to ˜30 minutes) from each reaction was determined from the slope of a plot of relative fluorescence units vs time (minutes) and then plotted against inhibitor concentration to estimate IC50 from log [Inhibitor] vs Response, Variable Slope model in GraphPad Prism from GraphPad Software (San Diego, Calif.).
(§7) [EGFR-WT]=5 nM, [ATP]=15 uM, [Y12-Sox]=5 uM (ATP KMapp˜12 uM); and [EGFR-T790M/L858R]=2.5 nM, [ATP]=20 uM, [Y12-Sox]=5 uM (ATP KMapp˜20 uM).

[3] = test system: WT-EGFR A431 cells; assay: Cell proliferation (CellTiter Glo, 72 hr) in A431 cells; format: cell-based; settings: Homo sapiens, A-431
Procedure: as §1, §2

[4] = test system: HCC827 (delE746-A750 deletion mutation) cells; assay: Cell proliferation (CellTiter Glo, 72 hr) in HCC827 cells; format: cell-based, human; settings: for GI50: Homo sapiens, HCC827 cells, 72 hr; for Ratio WT/mutant (HCC827): proliferation GI50, WT EGFR (A431) vs HCC827
Procedure: as §1, §2

[5] = target: EGFR-T790M/L858R (Homo sapiens (Human), UniProt P00533, L858R/T790M); assay: Omnia biochemical assay, EGFR (T790M/L858R) active enzyme; settings: for pIC50: [EGFR-T790M/L858R]=2.5 nM, [ATP]=20 uM, 30 min pre-incubation; for Ratio WT/mutant: biochemical IC50, WT EGFR vs EGFR (T790M/L858R)
Text: as §3, §4, §5, §6, §7

[6] = target: EGFR delE746-A750 mutation (HCC827 cells) (Homo sapiens (Human), UniProt P00533, DEL746-750); assay: Phospho-EGFR signaling (immunoblotting, 1 hr) in HCC827 cells; format: cell-based
Procedure: as §1
(§8) All primary antibodies were obtained from Cell Signaling (Danvers, Mass.) and used at 1:1000. Secondary antibodies were used at 1:10,000. Goat anti-mouse IgG IRDye 800CW antibody was obtained from LiCor Biosciences (Lincoln, Nebr.) and goat anti-rabbit IgG Alexa Fluor 680 was obtained from Invitrogen.
(§9) Cells were grown in 12-well plates (Corning, Coring, N.Y.) to 90% confluence and then incubated in low-serum (0.1% FBS) media for 16-18 hr. […]
(§10) Lysate protein concentrations were determined by BCA Assay (Pierce, Rockford, Ill.) and 50 ug of each lysate was separated by 4-12% gradient SDS-PAGE (Invitrogen), transferred to nitrocellulose membrane (Biorad, Hercules, Calif.) and probed with specific antibodies. Phospho-protein signals were quantitated using Odyssey Infrared Imaging (Li-Cor Biosciences). […]

[7] = target: EGFR double mutation L858R/T790M (H1975 cells) (Homo sapiens (Human), UniProt P00533, L858R/T790M); assay: Phospho-EGFR signaling (immunoblotting, 1 hr) in H1975 cells; format: cell-based; settings: for pEC50: H1975 cells, 1 hr compound, phospho-EGFR (Y1068); for Ratio WT/mutant (H1975): signaling EC50, WT EGFR (A431) vs H1975
Procedure: as §1, §8
Cells were grown in 12-well plates (Corning, Coring, N.Y.) to 90% confluence and then incubated in low-serum (0.1% FBS) media for 16-18 hr. Cells were then treated with 5, 1.25, 0.31, 0.078, 0.020 or 0.005 μM test compound in low-serum (0.1% FBS) media for 1 hr. A431 cells were then stimulated with 50 ng/ml EGF (Peprotech, Rocky Hill, N.J.) for 15 min. After treatment, cell monolayers were washed with cold PBS (Invitrogen) and immediately lysed by scrapping into 60 uL cold Cell Extraction Buffer (Invitrogen) supplemented with Complete Protease inhibitors (Roche, Indianapolis, Ind.) and PhosphoSTOP (Roche) phosphatase inhibitors.
Lysate protein concentrations were determined by BCA Assay (Pierce, Rockford, Ill.) and 50 ug of each lysate was separated by 4-12% gradient SDS-PAGE (Invitrogen), transferred to nitrocellulose membrane (Biorad, Hercules, Calif.) and probed with specific antibodies. Phospho-protein signals were quantitated using Odyssey Infrared Imaging (Li-Cor Biosciences).
To assess phosphor-EGFR signaling, blots were probed with rabbit anti-Phospho-EGFR (Y1068) and mouse total anti-EGFR antibodies. Phospho-EGFR signal was normalized to total EGFR expression for each sample. Results are indicated as % DMSO control. Normalized data was fitted using a sigmoidal curve analysis program (Graph Pad Prism version 5) with variable Hill slope to determine the EC50 values.
The compound numbers recited in Table 3 correspond to the compound numbers in Table 1.

[8] = test system: H1975 tumor; assay: H1975 tumor in vivo study; design: species or system nu/nu mice
Procedure: Female nu/nu mice were implanted with 1×10^7H1975 tumor cells in 50% Matrigel subcutaneously (0.2 ml injection volume) in the flank. Tumor measurements were recorded three times per week. Tumors were pair matched when they reached an average size of 100-150 mg. Group size was 10 mice. Test compound was administered intraperitoneal, 25 mg/kg or 50 mg/kg daily for 21 days. % Tumor inhibition was determined at 15 days and 18 days. Tumor volume was followed until tumors reached 1500 mm^3 or 60 days. Tumor inhibition value for I-1 was >80% for 25 mg/kg at both 15 and 18 days, and >90% for 50 mg/kg at both 15 and 18 days.

[9] = target: WT EGFR (A431 cells) (Homo sapiens (Human), UniProt P00533); assay: Phospho-EGFR signaling (immunoblotting, 1 hr) in A431 cells; format: cell-based; settings: 1 hr compound, EGF stimulated, phospho-EGFR (Y1068)
Procedure: as §1, §8, §9, §10

GI50 [1] | pIC50 [2] | GI50 [3] | GI50 [4] | pIC50 [5] | Ratio WT/mutant [5] | pEC50 ([6]; HCC827 cells, 1 hr compound, phospho-EGFR (Y1068)) | Ratio WT/mutant (HCC827) ([6]; signaling EC50, WT EGFR (A431) vs HCC827) | pEC50 [7] | Ratio WT/mutant (H1975) [7] | pEC50 [9] | Structure (SMILES) | Ratio WT/mutant (H1975) [1] | Ratio WT/mutant (HCC827) [4] | Tumor inhibition value ([8]; 25 mg/kg intraperitoneal daily, at 15 days) | Tumor inhibition value ([8]; 25 mg/kg intraperitoneal daily, at 18 days) | Tumor inhibition value ([8]; 50 mg/kg intraperitoneal daily, at 15 days) | Tumor inhibition value ([8]; 50 mg/kg intraperitoneal daily, at 18 days)
0.1 to 0.5 µM | 7.52 to 8.00 | 0.5 to 1 µM | 0.1 to 0.5 µM | > 9.00 | >20 | – | – | – | – | – | C=CC(=O)Nc1cccc(Nc2nc(Nc3ccc(NC(C)C)cc3OC)ncc2C(F)(F)F)c1 [Compound I-5, N-(3-(2-(4-(isopropylamino)-2-methoxyphenylamino)-5-(trifluoromethyl)pyrimidin-4-ylamino)phenyl)acrylamide] | >1 | >5 | – | – | – | –
0.01 to 0.1 µM | 8.00 to 9.00 | 0.5 to 1 µM | 0.01 to 0.1 µM | > 9.00 | >1 | 6.30 to 7.00 | >10 | 7.00 to 8.00 | >35 | < 6.00 | C=CC(=O)Nc1cccc(Nc2nc(Nc3ccc(NC4CN(CCF)C4)cc3OC)ncc2C(F)(F)F)c1 [Compound I-1, N-(3-(2-(4-(1-(2-fluoroethyl)azetidin-3-ylamino)-2-methoxyphenylamino)-5-(trifluoromethyl)pyrimidin-4-ylamino)phenyl)acrylamide] | >10 | >10 | > 80% | > 80% | > 90% | > 90%
0.1 to 0.5 µM | 8.00 to 9.00 | > 1 µM | 0.1 to 0.5 µM | > 9.00 | >15 | – | – | – | – | – | C=CC(=O)Nc1cccc(Nc2nc(Nc3ccc(NC4CN(C(C)=O)C4)cc3OC)ncc2C(F)(F)F)c1 [Compound I-2, N-(3-(2-(4-(1-acetylazetidin-3-ylamino)-2-methoxyphenylamino)-5-(trifluoromethyl)pyrimidin-4-ylamino)phenyl)acrylamide] | >5 | >15 | – | – | – | –
0.1 to 0.5 µM | 6.52 to 7.00 | > 1 µM | 0.01 to 0.1 µM | 8.00 to 9.00 | >50 | – | – | 6.30 to 7.00 | >10 | < 6.00 | C=CC(=O)Nc1cccc(Nc2nc(Nc3ccc(NC4CN(C(=O)OC(C)(C)C)C4)cc3OC)ncc2C(F)(F)F)c1 [Compound I-3, tert-butyl 3-(4-(4-(3-acrylamidophenylamino)-5-(trifluoromethyl)pyrimidin-2-ylamino)-3-methoxyphenylamino)azetidine-1-carboxylate] | >5 | >20 | – | – | – | –

Structure (SMILES) | GI50 [1] | pIC50 [2] | GI50 [3] | GI50 [4] | pIC50 [5] | Ratio WT/mutant [5] | pEC50 ([6]; HCC827 cells, 1 hr compound, phospho-EGFR (Y1068)) | Ratio WT/mutant (HCC827) ([6]; signaling EC50, WT EGFR (A431) vs HCC827) | pEC50 [7] | Ratio WT/mutant (H1975) [7] | pEC50 [9] | Ratio WT/mutant (H1975) [1] | Ratio WT/mutant (HCC827) [4] | Tumor inhibition value ([8]; 25 mg/kg intraperitoneal daily, at 15 days) | Tumor inhibition value ([8]; 25 mg/kg intraperitoneal daily, at 18 days) | Tumor inhibition value ([8]; 50 mg/kg intraperitoneal daily, at 15 days) | Tumor inhibition value ([8]; 50 mg/kg intraperitoneal daily, at 18 days)
C=CC(=O)Nc1cccc(Oc2nc(Nc3ccc(NC(C)C)cc3OC)ncc2Cl)c1 [Compound I-4, N-(3-(5-chloro-2-(4-(isopropylamino)-2-methoxyphenylamino)pyrimidin-4-yloxy)phenyl)acrylamide] | 0.5 to 1 µM | 7.00 to 7.52 | > 1 µM | 0.1 to 0.5 µM | 8.00 to 9.00 | >25 | – | – | – | – | – | >1 | >35 | – | – | – | –
